{"source": "patent US12247090B2", "about": "“Enzyme-mediated free radical initiating systems for the production of hydrogels and controlled radical polymerization processes” (Duke University, priority 2021, dated 2025)", "origin": "cited, not measured here", "system": "rat", "conditions": "in vivo, po", "data": [{"compound": "CC(=O)CC(C)=O", "note": "[ACAC, acetylacetone]", "values": [{"measurement": "LD50", "result": 55, "unit": "mg/kg"}]}]}
